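In this assay, cells in 96-well plates receive the compound at five concentrations for 48 hours. Endpoints are linearly interpolated between the surrounding concentrations. GI50 is the concentration that inhibits growth by half. Definition used: TGI = concentration required for complete inhibition of growth.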
Experiments:
Experiment in all cases: NCI-60 cell line screen, 48 h
[1] = tested on: SF-539 CNS
[2] = tested on: HL-60(TB) leukemia
[3] = tested on: UACC-257 melanoma
[4] = tested on: MALME-3M melanoma
[5] = tested on: NCI-H522 lung
[6] = tested on: NCI-H23 lung
[7] = tested on: HCT-15 colon
[8] = tested on: K-562 leukemia
[9] = tested on: SK-MEL-2 melanoma
[10] = tested on: NCI/ADR-RES ovarian

Structure (SMILES) | TGI [1] [µM] | TGI [2] [µM] | TGI [3] [µM] | TGI [4] [µM] | TGI [5] [µM] | TGI [6] [µM] | TGI [7] [µM] | TGI [8] [µM] | TGI [9] [µM] | GI50 [10] [µM] | TGI [10] [µM] | GI50 [1] [µM] | GI50 [3] [µM] | GI50 [4] [µM] | GI50 [5] [µM] | GI50 [6] [µM] | GI50 [7] [µM] | GI50 [8] [µM] | GI50 [9] [µM] | GI50 [2] [µM]
COc1cc(/C=N/N=C(\N)NO)c([N+](=O)[O-])cc1OC | > 100 | 56 | > 100 | > 100 | 34.4 | 99.4 | > 100 | > 100 | > 100 | – | – | – | – | – | – | – | – | – | – | –
C=C1C(OC(C)=O)CC(OC(C)=O)C2(C)C(OC(C)=O)C(OC(C)=O)C3=C(C)C(OC(=O)/C=C/c4ccccc4)CC(C(OC(C)=O)C12)C3(C)C (configuration not stated) | > 100 | > 100 | > 100 | > 100 | > 100 | – | > 100 | > 100 | > 100 | – | – | – | – | – | – | – | – | – | – | –
CC1=CCCC2C(C=O)(C1)CC(C)C2(CO)CC/C(=C/CO)CO (configuration not stated) | – | – | > 100 | > 100 | > 100 | > 100 | > 100 | > 100 | – | – | – | – | – | – | – | – | – | – | – | –
N#CC1=C(N)NC(=O)NC12Nc1ccccc1N2 | > 100 | – | > 100 | > 100 | > 100 | > 100 | > 100 | > 100 | > 100 | > 100 | > 100 | > 100 | > 100 | > 100 | > 100 | > 100 | > 100 | > 100 | > 100 | –
Nc1c2ccccc2nc2c(C(=O)Nc3ccc(S(N)(=O)=O)cc3)cccc12 | > 100 | – | > 100 | > 100 | > 100 | > 100 | > 100 | > 100 | > 100 | – | – | – | – | – | – | – | – | – | – | –
C[C@]12C[C@H](O)[C@H]3[C@@H](CCC4=CC(=O)CC[C@@]43C)[C@@H]1CC[C@@H]2c1csc(-c2ccccc2)n1 | > 100 | – | > 100 | 97.3 | > 100 | > 100 | > 100 | > 100 | > 90.5 | – | > 100 | – | – | – | – | – | – | – | – | –
CC(=O)Oc1ccc2c(c1)C(=O)c1nc(C)c(C)nc1C2=O | 55.4 | 56.4 | > 66.4 | 38 | 89.6 | > 100 | > 100 | > 100 | > 86.3 | – | – | – | – | – | – | – | – | – | – | –
O=C1NC2C(O)CCCCC2C12CCCCC2 (configuration not stated) | > 100 | > 100 | > 100 | > 100 | > 100 | > 100 | > 100 | > 100 | > 100 | – | – | – | – | – | – | – | – | – | – | –
CC(=O)[O-].N.N.N.N.[Co+3].[O-][Cl+3]([O-])([O-])[O-].[OH3+] | – | > 100 | > 100 | > 100 | > 100 | > 100 | > 100 | > 100 | > 100 | – | – | – | > 100 | > 100 | 49.5 | > 100 | > 100 | > 100 | > 100 | > 100
COc1ccc2c(c1)CN1CCc3c(cc(OC)c(OC)c3OC)C1C2 (configuration not stated) | > 100 | > 100 | > 100 | > 100 | > 100 | > 100 | > 100 | > 100 | > 100 | – | – | – | – | – | – | – | – | – | – | –
O=c1c2cc3ccccc3n2c(=O)c2cc3ccccc3n12 | > 100 | > 100 | > 100 | > 100 | > 100 | > 100 | > 100 | > 100 | > 100 | – | – | – | – | – | – | – | – | – | – | –
C[CH2][Sn]([CH2]C)([O]C(=O)c1ccc(F)cc1)[O]C(=O)c1ccc(F)cc1 | 30.1 | > 100 | 41 | 34.2 | 4.48 | 32.8 | > 63 | 64.7 | 17.5 | – | – | 16.4 | 19.7 | 16.6 | 1.71 | 17.3 | 25.7 | 16.7 | 12.8 | 60.5
Cc1cccc2c1[nH]c(=O)c1c3ccccc3cn21 | 15.8 | – | 94.4 | 24.7 | 64.1 | 38.6 | 31.7 | – | > 100 | 12.1 | 34.8 | 3.85 | 16.6 | 8.23 | 6.52 | 17.2 | 5.25 | – | 14.4 | –
O=C([O-])CC(=O)[O-].[NH-][C@@H]1CCCC[C@H]1[NH-].[Pt+4] | > 100 | > 100 | > 100 | > 100 | > 100 | > 97.3 | > 100 | > 100 | > 100 | – | – | 46.8 | > 89 | 6.4 | 18.7 | 16.9 | 9.61 | 3.66 | 59.9 | 6.31
CC[PH+](CC)CC.[Cl][Au] | 7.36 | 0.278 | 2.36 | 2.56 | 0.31 | 3.42 | 3.17 | 1.19 | 2.95 | – | – | 2.35 | 1.09 | 1.27 | 0.122 | 1.68 | 1.31 | 0.319 | 1.38 | < 0.0469
O/N=C/c1ccc(O)c(O)c1 | > 100 | 58.8 | > 100 | > 100 | > 100 | > 100 | > 100 | > 100 | > 100 | – | – | – | – | – | – | – | – | – | – | –
N#Cc1cc(S(=O)(=O)Nc2nc3ccccc3o2)c(SCc2ccccc2)cc1Cl | 33.3 | – | 55.9 | 69.9 | 40.4 | 54.3 | 60.1 | > 100 | 53.4 | 29.6 | 75.8 | 17.9 | 22.3 | 34.5 | 17 | 26.1 | 24.6 | 38.8 | 22.3 | –
